In patent US10925858B2, “S-nitrosoglutathione (GSNO) and GSNO reductase inhibitors for use in therapy” (MUSC FOUNDATION FOR RESEARCH DEVELOPMENT, priority 2017, dated 2021):

Tests used:
[1] = test system: protein-associated 3-nitrotyrosine; test: Assay for protein-associated nitrotyrosine in hBMVECs; format: cell-based, human; details: thrombin 0.1 unit/ml 20 min; L-NIO or FeTPPS 10 μM pretreated 30 min; ELISA
Description: (§1) Cell culture: Primary human brain microvascular endothelial cells (hBMVECs) were purchased from Angio-Proteomie (Cat #: cAP-0002, Atlanta, Ga.). The cells were cultured in cell culture flasks or plates precoated with Quick Coating Solution (Angio-Proteomie; Cat #: cAP-01) and maintained in Endothelial Growth Medium (Angio-Proteomie; Cat #: cAP-02) at 37° C. under 5% CO2/95% air. When the cells were almost confluent, the medium was replaced with endothelial basal medium (Angio-Proteomie; Cat #: cAP-03) containing 0.5% fetal bovine serum (FBS; Life Technologies, Grand Island, N.Y.) about 8-12 hours before the experiment. No institutional approval was required for this study. The study was not pre-registered.
Cellular levels of protein-associated 3-nitrotyrosine were analyzed by ELISA Kit (Abeam, Cat #: ab116691) and Western blot analysis using antibody specific to 3-nitrotyrosine (Abeam, Cat #: ab61392). For the ELISA, hBMVECs were lysed in extraction buffer provided with the kit followed by centrifugation at 16,000×g 4° C. The cell lysate supernatants were subjected to protein quantification with Bio-Rad DC protein assay kit (Bio-Rad, Hercules, Calif.) and the equal amounts of proteins (500 μg) were loaded onto 96 well microplate coated with 3-nitrotyrosine capture antibody and followed by incubation with biotin-conjugated 3-nitrotyrosine detector antibody. Following washing, the plates were incubated with HRP-conjugated streptoavidin and the levels of 3-nitrotyrosine were measured by incubation with 3,3′,5,5′-tetramethylbenzidine solution and colorimetric analysis at […] using SpectraMax 190 Microplate Reader (Molecular Devices, Sunnyvale, Calif.). For analysis of degree of RhoA tyrosine nitration, the cell lysates were immunoprecipiated with antibody specific to 3-nitrotyrosine (Abeam) and the levels of tyrosine nitrated RhoA were analyzed by Western analysis for RhoA.

[2] = test system: hBMVECs; test: Assay for F-actin stress fiber development in thrombin treated hBMVECs; format: cell-based, human; details: thrombin 0.1 unit/ml 30 min; GSNO 100 μM or SIN-1 100 μM pretreated 2 hr
Description: as §1
Assay for F-actin stress fiber development and endothelial cell contraction: hBMVECs were cultured on fibronectin-coated chamber slides (BD Bioscience). Following drug treatments, the cells were fixed with 4% (wt/vol) paraformaldehyde, permeabilized by the addition of 0.25% Triton X-100, and blocked by 2% bovine serum albumin (BSA) in phosphate buffered saline (PBS). […] The density of fluorescence was analyzed by ImageJ (NIH, Bethesda, Md.).

[3] = test system: myelin; test: Myelin status in spinal cords of EAE mice (immunofluorescent staining for MBP, Western for MBP and PLP); format: in vivo, C57BL/6 mice; details: 1 mg/kg/day, N6022 vs FTY720
Description: Female C57BL/6 mice of 8-12 weeks of age, purchased from Jackson Laboratory, were provided with food and water ad libitum and were kept in pathogen free animal care facility of Medical University of South Carolina (MUSC) throughout the study. All procedures were conducted in accordance with accepted standards of humane care as approved by the Institutional Animal Care and Use Committee (Approved number: AR #1644). EAE was induced as described previously (Nath et al., 2009). Briefly, mice were immunized subcutaneously in the flank regions with MOG35-55 peptide (MOG; 200 μg; Peptide International) emulsified (1:1) in 100 ul complete Freund's adjuvant (CFA) on day 0 and day 7. Additionally, 300 ng of Pertussis toxin (Sigma-Aldrich, St. Louis, Mo.) was given on day 0 and day 2 by i.p. injection. […] Clinical signs of EAE were scored by examiners blinded to experimental treatments using the following scale: 0=no clinical signs of disease; 1=piloerection and sluggish; 2=limp tail (ataxia); 2.5=ataxia with partial hind limb paralysis; 3=full paralysis of hind limb; 3.5=full paralysis of hind limb with paralysis of one fore limb; 4=full paralysis of two limbs; 4.5=moribund stage; 5=death. […]
Tissue samples were embedded in paraffin block and sectioned transversely (5 μm-thick). […] For the quantitation of infiltrates, the digital images were analyzed by ImageJ (NIH, Bethesda, Md.). […]

Cl.O=S(=O)([O-])c1ccc(-c2c3nc(c(-c4ccc(S(=O)(=O)O)cc4)c4ccc([nH]4)c(-c4ccc(S(=O)(=O)O)cc4)c4nc(c(-c5ccc(S(=O)(=O)O)cc5)c5ccc2[nH]5)C=C4)C=C3)cc1.[Fe] [FeTPPS, 5,10,15,20-Tetrakis(4-sulfonatophenyl)porphyrinato Iron (III), Cl, reference compound]
thrombin-induced 3-nitrotyrosine levels [1]: inhibited

N[C@@H](CCC(=O)N[C@@H](CSN=O)C(=O)NCC(=O)O)C(=O)O [GSNO, S-nitrosoglutathione]
thrombin-induced development of F-actin stress fiber formation [2]: inhibited

Cc1cc(C(N)=O)ccc1-n1c(CCC(=O)O)ccc1-c1ccc(-n2ccnc2)cc1 [N6022, reference compound]
protection against myelin loss in the spinal cords [3]: protects against the myelin loss in the spinal cords of EAE mice greater than FTY720 treatment
